Structures can show the parent of a compound that is named as a salt.
Test: Oral (sublingual) administration of 5 mg asenapine maleate to healthy adult men
Assay type: in vivo, human
Conditions: 5 mg asenapine maleate sublingual, healthy adult men (18)
Experimental: The N-desmethyl asenapine tends to cause adverse effects such as adverse effects on the cardiovascular system in comparison with asenapine. For example, in a case where 5 mg of asenapine maleate is orally administered (sublingual administration), the area under plasma concentration-time curve of the free asenapine for a period between 10 minutes and 72 hours (AUC0.17.72) can be 25,000 to 38,000 pg·hr/mL. In this case, N-desmethyl asenapine has an AUC0.17.72 of 10,000 to 17,000 pg·hr/mL, which is 40% or more of the […] of the free asenapine. In contrast, when approximately the same amount (4.8 mg) of asenapine is administrated using the patch of the present invention comprising the isopropyl palmitate in the adhesive agent layer, this makes it possible to sufficiently suppress the AUC of the asenapine metabolite while the free asenapine has an AUC equivalent to that in the case of the oral administration.
Furthermore, in a case where the patch obtained in Example 2 was administrated, the incidence proportion of adverse effects on the cardiovascular system in the AUC measurement test was 6%. […]

CN1C[C@@H]2c3ccccc3Oc3ccc(Cl)cc3[C@H]2C1 (relative stereo) [asenapine maleate, trans-5-chloro-2-methyl-2,3,3a,12b-tetrahydro-1H-diben z[2,3:6,7]oxepino[4,5-c]pyrrole]
incidence proportion of adverse effects on the cardiovascular system: 39%
AUC0.17.72 of the free asenapine (average value) (plasma, 10 minutes to 72 hours): 32,074 pg·hr/mL

Reference: patent US10814002B2, “Patch and method for producing the same” (HISAMITSU PHARMACEUTICAL CO., INC., priority 2012, dated 2020)
